Read-outs that look alike come from different tables or passages of the source.
Key:
Assay type in all cases: biochemical
TYK2 = TYK2 (Homo sapiens (Human), UniProt P29597); assay: JAK Caliper Enzyme Assay at 1 mM ATP, TYK2
In short: (§1)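 Peptide phosphorylation by recombinant human kinase domain, 1 mM ATP, room temperature, EDTA-terminated, detected by microfluidic mobility shift; % effect normalised to DMSO baseline.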

JAK2 = JAK2 (Homo sapiens (Human), UniProt O60674); assay: JAK Caliper Enzyme Assay at 1 mM ATP, JAK2
Sequence of JAK2 (O60674 849-1124): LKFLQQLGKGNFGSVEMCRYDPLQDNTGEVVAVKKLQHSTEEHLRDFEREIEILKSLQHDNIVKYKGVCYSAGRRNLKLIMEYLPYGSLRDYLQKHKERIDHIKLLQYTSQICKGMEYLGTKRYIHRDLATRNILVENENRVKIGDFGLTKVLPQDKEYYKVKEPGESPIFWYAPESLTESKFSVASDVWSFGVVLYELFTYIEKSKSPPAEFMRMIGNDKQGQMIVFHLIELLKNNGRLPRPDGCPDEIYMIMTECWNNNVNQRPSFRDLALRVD
In short: as §1

JAK1 = JAK1 (Homo sapiens (Human), UniProt P23458); assay: JAK Caliper Enzyme Assay at 1 mM ATP, JAK1
Sequence of JAK1 (P23458 875-1153): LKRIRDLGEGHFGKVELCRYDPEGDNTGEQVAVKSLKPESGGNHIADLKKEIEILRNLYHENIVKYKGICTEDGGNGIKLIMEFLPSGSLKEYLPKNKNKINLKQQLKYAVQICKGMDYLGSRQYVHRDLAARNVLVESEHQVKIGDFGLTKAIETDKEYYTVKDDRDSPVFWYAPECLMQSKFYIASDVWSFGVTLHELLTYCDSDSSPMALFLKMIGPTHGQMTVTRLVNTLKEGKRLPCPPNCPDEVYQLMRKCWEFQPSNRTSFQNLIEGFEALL
In short: (§2)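 Recombinant human kinase domains phosphorylate a fluorescent synthetic peptide at 1 mM ATP, room temperature, with enzyme and time tuned for 20-30% conversion; EDTA-stopped. Product/substrate separated by microfluidic mobility shift; percent effect versus DMSO and positive controls fitted to IC50 (nM).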

JAK3 = JAK3 (Homo sapiens (Human), UniProt P52333); assay: JAK Caliper Enzyme Assay at 1 mM ATP, JAK3
Sequence of JAK3 (P52333 822-1111): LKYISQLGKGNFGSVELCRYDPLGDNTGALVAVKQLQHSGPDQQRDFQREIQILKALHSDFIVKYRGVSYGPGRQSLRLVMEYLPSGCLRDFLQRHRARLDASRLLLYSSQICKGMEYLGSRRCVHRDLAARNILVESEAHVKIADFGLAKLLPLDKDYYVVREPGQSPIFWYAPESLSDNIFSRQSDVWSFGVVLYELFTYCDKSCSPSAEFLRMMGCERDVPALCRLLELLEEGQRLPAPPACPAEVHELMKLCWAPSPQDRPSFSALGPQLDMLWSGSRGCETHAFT
In short: as §2

Sequence of TYK2 (P29597 897-1176): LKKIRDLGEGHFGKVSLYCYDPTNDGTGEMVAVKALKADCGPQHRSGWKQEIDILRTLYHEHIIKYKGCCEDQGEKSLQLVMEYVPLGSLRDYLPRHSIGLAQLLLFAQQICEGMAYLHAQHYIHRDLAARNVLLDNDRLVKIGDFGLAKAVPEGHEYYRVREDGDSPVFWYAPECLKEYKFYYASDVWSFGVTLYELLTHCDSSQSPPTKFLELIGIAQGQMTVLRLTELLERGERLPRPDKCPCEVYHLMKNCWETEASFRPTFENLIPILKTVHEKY

Row | IC50 (TYK2) [nM] | IC50 (JAK2) [nM] | IC50 (JAK1) [nM] | IC50 (JAK3) [µM] | IC50 (TYK2; JAK Caliper enzyme assay) [nM] | IC50 (JAK2; JAK Caliper enzyme assay) [nM] | IC50 (JAK1; JAK Caliper enzyme assay) [nM] | IC50 (JAK3; JAK Caliper enzyme assay) [µM] | SMILES
1 | 88 | 64 | 1060 | 6.96 | – | – | – | – | CN1CCC(n2cc(-c3cc4ncccc4c(-c4ccn(C5(CC#N)CN(CC(F)(F)F)C5)n4)n3)cn2)CC1 [Example 117, [3-(3-{7-[1-(1-methylpiperidin-4-yl)-1H-pyrazol-4-yl]-1,6-naphthyridin-5-yl}-1H-pyrazol-1-yl)-1-(2,2,2-trifluoroethyl)azetidin-3-yl]acetonitrile]
2 | 118 | > 10000 | > 10000 | > 10 | – | – | – | – | CS(=O)(=O)N1CC(CC#N)(n2ccc(-c3nc(-c4cc(O)cc(F)c4)cc4ncccc34)n2)C1 [Example 261, [3-{3-[7-(3-fluoro-5-hydroxyphenyl)-1,6-naphthyridin-5-yl]-1H-pyrazol-1-yl}-1-(methylsulfonyl)azetidin-3-yl]acetonitrile]
3 | 32 | 63 | 232 | 9.52 | – | – | – | – | CS(=O)(=O)N1CC(CC#N)(n2ccc(-c3nc(-c4cnn(C(CO)CCl)c4)cc4ncccc34)n2)C1 (centres unmarked) [Example 130, [3-(3-{7-[1-(1-chloro-3-hydroxypropan-2-yl)-1H-pyrazol-4-yl]-1,6-naphthyridin-5-yl}-1H-pyrazol-1-yl)-1-(methylsulfonyl)azetidin-3-yl]acetonitrile]
4 | 68 | 378 | 2370 | > 10 | – | – | – | – | CNS(=O)(=O)N1CC(CC#N)(n2ccc(-c3nc(-c4cnn(C)c4)cc4ncccc34)n2)C1 [Example 109, 3-(cyanomethyl)-N-methyl-3-{3-[7-(1-methyl-1H-pyrazol-4-yl)-1,6-naphthyridin-5-yl]-1H-pyrazol-1-yl}azetidine-1-sulfonamide]
5 | 24 | 243 | 1010 | > 10 | – | – | – | – | Cn1cc(-c2cc3ncccc3c(-c3ccn(C4(CC#N)CN(S(=O)(=O)C5CC5)C4)n3)n2)cn1 [Example 107, [1-(cyclopropylsulfonyl)-3-{3-[7-(1-methyl-1H-pyrazol-4-yl)-1,6-naphthyridin-5-yl]-1H-pyrazol-1-yl}azetidin-3-yl]acetonitrile]
6 | 81 | 1000 | 2460 | > 10 | – | – | – | – | CS(=O)(=O)N1CC(CC#N)(n2ccc(-c3nc(-c4cnc(N)c(N)c4)cc4ncccc34)n2)C1 [Example 229, [3-{3-[7-(5,6-diaminopyridin-3-yl)-1,6-naphthyridin-5-yl]-1H-pyrazol-1-yl}-1-(methylsulfonyl)azetidin-3-yl]acetonitrile]
7 | 7 | 30 | 49 | 1.93 | – | – | – | – | N#CC[C@]1(n2ncc(-c3cc(-c4cc(N)[nH]n4)cc4ncccc34)n2)C[C@@H](C#N)C1 [Example 307, cis-3-{4-[7-(5-amino-1H-pyrazol-3-yl)quinolin-5-yl]-2H-1,2,3-triazol-2-yl}-3-(cyanomethyl)cyclobutanecarbonitrile]
8 | 239 | 3350 | 5840 | > 10 | – | – | – | – | N#CCC1(n2ccc(-c3nc(-c4cn[nH]n4)cc4ncccc34)n2)CN(CC(F)(F)F)C1 [Example 153, [3-{3-[7-(2H-1,2,3-triazol-4-yl)-1,6-naphthyridin-5-yl]-1H-pyrazol-1-yl}-1-(2,2,2-trifluoroethyl)azetidin-3-yl]acetonitrile]
9 | 17 | 195 | 338 | > 10 | – | – | – | – | N#CCC1(n2ncc(-c3cc(-c4ccn[nH]4)cc4ncccc34)n2)CN(S(=O)(=O)C2COC2)C1 [Example 301, [1-(oxetan-3-ylsulfonyl)-3-{4-[7-(1H-pyrazol-5-yl)quinolin-5-yl]-2H-1,2,3-triazol-2-yl}azetidin-3-yl]acetonitrile]
10 | 96 | 532 | 994 | > 10 | – | – | – | – | Cn1cc(-c2cc3ncccc3c(-c3ccn(C4(CC#N)CN(S(C)(=O)=O)C4)n3)n2)ccc1=O [Example 248, [3-{3-[7-(1-methyl-6-oxo-1,6-dihydropyridin-3-yl)-1,6-naphthyridin-5-yl]-1H-pyrazol-1-yl}-1-(methylsulfonyl)azetidin-3-yl]acetonitrile]
11 | 26 | 167 | 520 | 8.16 | – | – | – | – | N#CC[C@]1(n2ncc(-c3cc(-c4ccc(N)nc4)cc4ncccc34)n2)C[C@@H](C#N)C1 [Example 366, cis-3-{4-[7-(6-aminopyridin-3-yl)quinolin-5-yl]-2H-1,2,3-triazol-2-yl}-3-(cyanomethyl)cyclobutanecarbonitrile]
12 | – | – | – | – | 102 | 1040 | 2390 | > 10 | N#CC[C@]1(n2cc(-c3cc(-c4ccc(N)nc4)cc4nccn34)cn2)C[C@@H](C#N)C1 [Example 469, cis-3-{4-[7-(6-aminopyridin-3-yl)imidazo[1,2-a]pyridin-5-yl]-1H-pyrazol-1-yl}-3-(cyanomethyl)cyclobutanecarbonitrile]
13 | 45 | 233 | 488 | > 10 | – | – | – | – | N#CC[C@]1(n2ccc(-c3nc(-c4ccc(N)nc4)cc4ncccc34)n2)C[C@H](C#N)C1 [Example 196, trans-3-{3-[7-(6-aminopyridin-3-yl)-1,6-naphthyridin-5-yl]-1H-pyrazol-1-yl}-3-(cyanomethyl)cyclobutanecarbonitrile]
14 | 781 | > 10000 | > 10000 | > 10 | – | – | – | – | COc1ncccc1-c1cc2ncccc2c(-c2ccn(C3(CC#N)CN(S(C)(=O)=O)C3)n2)n1 [Example 187, [3-{3-[7-(2-methoxypyridin-3-yl)-1,6-naphthyridin-5-yl]-1H-pyrazol-1-yl}-1-(methylsulfonyl)azetidin-3-yl]acetonitrile]
15 | 88 | 2070 | 2030 | > 10 | – | – | – | – | N#CCC1(n2ccc(-c3nc(-c4ccc(O)nc4)cc4ncccc34)n2)CN(C2CC(F)(F)C2)C1 [Example 185, [1-(3,3-difluorocyclobutyl)-3-{3-[7-(6-hydroxypyridin-3-yl)-1,6-naphthyridin-5-yl]-1H-pyrazol-1-yl}azetidin-3-yl]acetonitrile]
16 | 661 | 3500 | > 10000 | > 10 | – | – | – | – | CNc1cc(-c2cc3ncccc3c(-c3ccn([C@]4(CC#N)C[C@@H](C#N)C4)n3)n2)nn1C [Example 70, trans-3-(cyanomethyl)-3-(3-{7-[1-methyl-5-(methylamino)-1H-pyrazol-3-yl]-1,6-naphthyridin-5-yl}-1H-pyrazol-1-yl)cyclobutanecarbonitrile]
17 | 20 | 92 | 404 | 3.76 | – | – | – | – | N#CC[C@]1(n2ncc(-c3cc(-c4cccc(N)n4)cc4ncccc34)n2)C[C@@H](C#N)C1 [Example 358, cis-3-{4-[7-(6-aminopyridin-2-yl)quinolin-5-yl]-2H-1,2,3-triazol-2-yl}-3-(cyanomethyl)cyclobutanecarbonitrile]
18 | 948 | 7900 | 5760 | > 10 | – | – | – | – | CC(=O)Nc1cc(-c2cc3ncccc3c(-c3ccn(C4(CC#N)CN(S(C)(=O)=O)C4)n3)n2)cnc1NC(C)=O [Example 231, N,N′-[5-(5-{1-[3-(cyanomethyl)-1-(methylsulfonyl)azetidin-3-yl]-1H-pyrazol-3-yl}-1,6-naphthyridin-7-yl)pyridine-2,3-diyl]diacetamide]
19 | – | – | – | – | 2140 | > 10000 | > 10000 | > 10 | CO[C@H]1C[C@@](CC#N)(n2cc(-c3cc(-c4c[nH]nc4CO)cc4nccn34)cn2)C1 [Example 463, [cis-1-(4-{7-[3-(hydroxymethyl)-1H-pyrazol-4-yl]imidazo[1,2-a]pyridin-5-yl}-1H-pyrazol-1-yl)-3-methoxycyclobutyl]acetonitrile]
20 | 488 | 1750 | 6410 | > 10 | – | – | – | – | Cc1cc(-c2cc3ncccc3c(-c3ccn(C4(CC#N)CN(S(C)(=O)=O)C4)n3)n2)cnc1N [Example 219, [3-{3-[7-(6-amino-5-methylpyridin-3-yl)-1,6-naphthyridin-5-yl]-1H-pyrazol-1-yl}-1-(methylsulfonyl)azetidin-3-yl]acetonitrile]
21 | 8 | 33 | 81 | 7.79 | – | – | – | – | Cc1cc(-c2nc(-c3cc[nH]n3)cc3ncccc23)nn1[C@]1(CC#N)C[C@H](C#N)C1 [Example 268, cis-3-(cyanomethyl)-3-{5-methyl-3-[7-(1H-pyrazol-3-yl)-1,6-naphthyridin-5-yl]-1H-pyrazol-1-yl}cyclobutanecarbonitrile]
22 | 55 | 821 | 1260 | > 10 | – | – | – | – | Cc1cc(-c2cc3ncccc3c(-c3ccn(C4(CC#N)CN(CC(F)(F)F)C4)n3)n2)c[nH]c1=O [Example 250, [3-{3-[7-(5-methyl-6-oxo-1,6-dihydropyridin-3-yl)-1,6-naphthyridin-5-yl]-1H-pyrazol-1-yl}-1-(2,2,2-trifluoroethyl)azetidin-3-yl]acetonitrile]
23 | 1880 | 7880 | > 10000 | > 10 | – | – | – | – | Cc1cncc(-c2cc3ncccc3c(-c3ccn(C4(CC#N)CN(CC(F)(F)F)C4)n3)n2)c1 [Example 173, [3-{3-[7-(5-methylpyridin-3-yl)-1,6-naphthyridin-5-yl]-1H-pyrazol-1-yl}-1-(2,2,2-trifluoroethyl)azetidin-3-yl]acetonitrile]

From patent US11254668B2, “Pyrazolo[1,5-A]pyrazin-4-yl and related derivatives” (Pfizer Inc., priority 2017, dated 2022)
